Laboratory results taken from patent US10898420B2, “Compositions containing phenolic compounds having synergistic antioxidant benefits” (L'OREAL, priority 2016, dated 2021).

How the values were obtained:
[1] = Hydroxyl oxygen radical absorbance capacity (HORAC) assay, fluorescent probe with hydrogen peroxide and Cobalt(II) fluoride, Gallic acid standard; details: individual antioxidant compound
Protocol: (§1) Synergism was determined by comparing the antioxidant capacities of combinations of components measured by ORAC and HORAC, with expected or additive values of the individual compounds. The […], measure two different antioxidant properties, radical chain breaking and prevention of radical formation. The ORAC and HORAC assays are both fluorometric assays that use hydrogen atom transfer chemistry to detect oxidation of a fluorescent probe. In the ORAC assay, a free radical initiator is used to produce peroxyl radical probes, while in the HORAC assay, a hydroxyl radical initiator and fenton reagent are used to produce hydroxyl radical probes.
(§2) As reflected in the Examples below, the expected ORAC/HORAC is the combined (additive) antioxidant capacity of each individual antioxidant compound in the association, measured individually and assuming that each is functioning independently. The expected ORAC or HORAC value of a certain association can be calculated by using the following equation: ORAC or HORAC (total)=sum of ORAC or HORAC (compound n, individually) multiplied by the Percentage (compound n, of use in a cosmetic composition), n=1, 2, 3 . . . .
Similar to the ORAC assay, the HORAC assay is an in tubo assay designed to quantify the capacity of an antioxidant to avert the hydroxyl radical or anti-Fenton reaction. The hydroxyl radical, generated from hydrogen peroxide and Cobalt(II) fluoride (Fenton reaction), will quench a fluorescent probe by a hydrogen atom transfer reaction. Certain antioxidants can chelate the Co(II), preventing the generation of the hydroxyl radical and initially block or prevent the quenching of the probe. By quantifying the decay of fluorescence using a fluorometer, the degree of protection is determined comparing with a standard control antioxidant Gallic acid. The result is expressed in μMol equivalent of Gallic acid. Equipment that can automatically measure and calculate the capacity is commercially available, such as the VarioSkan flash microplate reader from Thermo Scientific. […]

[2] = Oxygen radical absorbance capacity (ORAC) assay, fluorescein probe with AAPH, Trolox standard; details: individual antioxidant compound
Protocol: as §1, §2
The ORAC assay is one of most commonly used methods to evaluate the capacity of antioxidants against ROS (reactive oxygen species), specific for peroxyl which is one of the most important free radicals present in the human skin environment. […] Azo-initiators are considered to produce the peroxyl radical by heating, which damages the fluorescent molecule, resulting in the loss of fluorescence. […] By quantifying the decay of fluorescence using a fluorometer, the degree of protection is determined comparing with a standard control antioxidant Trolox. […] Equipment that can automatically measure and calculate the capacity is commercially available, such as the VarioSkan flash microplate reader from Thermo Scientific.
References disclosing ORAC assays include: Cao G, Alessio H, Cutler R (1993). “Oxygen-radical absorbance capacity assay for antioxidants”. […]

SMILES	HORAC [1]	ORAC [2]
O=C1O[C@H]([C@@H](O)CO)C(O)=C1O [Vitamin C, ascorbic acid]	No activity	4456 μmolTolox/g
O=C(O)[C@H]1O[C@@H](Oc2cc3oc(-c4ccccc4)cc(=O)c3c(O)c2O)[C@H](O)[C@@H](O)[C@@H]1O [baicalin]	2592 μmolGAE/g	4759 μmolTolox/g
COc1cc(/C=C/C(=O)O)ccc1O [ferulic acid]	9868 μmolGAE/g	14272 μmolTolox/g
